Source: patent publication US6737383B1, “Herbicidal oxadiazolidines” (priority 1999, dated 2004)

Assays:
blackgrass = assay: Test B pre/postemergence blackgrass; format: in vivo, Alopecurus myosuroides
Procedure, shortened: (§1)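 Response is a visual 0-to-10 score relative to untreated plants, where 0 means no effect and 10 means complete control, taken twelve to sixteen days after application. Treatments went onto soil at planting and onto foliage of 1- to 4-leaf plants, using a surfactant-containing non-phytotoxic solvent.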

cocklebur = assay: Test B pre/postemergence cocklebur; format: in vivo, Xanthium strumarium
Procedure, shortened: as §1

corn = assay: Test B pre/postemergence corn; format: in vivo, Zea mays
Procedure, shortened: as §1

crabgrass = assay: Test B pre/postemergence crabgrass; format: in vivo, Digitaria sanguinalis
Procedure, shortened: as §1

giant foxtail = assay: Test B pre/postemergence giant foxtail; format: in vivo, Setaria faberii
Procedure, shortened: as §1

morningglory = assay: Test B pre/postemergence morningglory; format: in vivo, Ipomoea hederacea
Procedure, shortened: as §1

pigweed = assay: Test B pre/postemergence pigweed; format: in vivo, Amaranthus retroflexus
Procedure, shortened: as §1

rape = assay: Test B pre/postemergence rape; format: in vivo, Brassica napus
Procedure, shortened: as §1

soybean = assay: Test B pre/postemergence soybean; format: in vivo, Glycine max
Procedure, shortened: as §1

sugar beet = assay: Test B pre/postemergence sugar beet; format: in vivo, Beta vulgaris
Procedure, shortened: as §1

velvetleaf = assay: Test B pre/postemergence velvetleaf; format: in vivo, Abutilon theophrasti
Procedure, shortened: as §1

wheat = assay: Test B pre/postemergence wheat; format: in vivo, Triticum aestivum
Procedure, shortened: as §1

purple nutsedge = assay: Test B pre/postemergence purple nutsedge; format: in vivo, Cyperus rotundus
Procedure, shortened: as §1

rice = assay: Test B flood test rice; format: in vivo, Oryza sativa
Procedure, shortened: (§2)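 Flood test on plants grown to the 2-leaf stage; treated plants kept in greenhouse twelve to sixteen days, then visually rated against controls on a 0 (no effect) to 10 (complete control) scale.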

smallflower flatsedge = assay: Test B flood test smallflower flatsedge; format: in vivo, Cyperus difformis
Procedure, shortened: as §2

duck salad = assay: Test B flood test duck salad; format: in vivo, Heteranthera limosa
Procedure, shortened: as §2

[1] = Postemergence, Rate 62 g/ha, scale 0 to 10, 0 is no effect, 10 is complete control
[2] = Postemergence, Rate 250 g/ha, scale 0 to 10, 0 no effect, 10 complete control
[3] = Preemergence, Rate 62 g/ha, scale 0 to 10 (0 no effect, 10 complete control)
[4] = Preemergence, Rate 125 g/ha, scale 0 to 10 (0 no effect, 10 complete control)
[5] = Preemergence, Rate 250 g/ha, scale of 0 to 10 where 0 is no effect and 10 is complete control
[6] = Preemergence, Rate 500 g/ha, scale 0 (no effect) to 10 (complete control)
[7] = Rate 125 g/ha, Postemergence, scale 0 to 10, 0 no effect, 10 complete control
[8] = Rate 500 g/ha, Postemergence, scale 0 to 10, 0 no effect, 10 complete control
[9] = Rate 125 g/ha, Postemergence section (flood test species), scale 0 to 10, 0 no effect, 10 complete control
[10] = Rate 500 g/ha, listed under Postemergence (flood test species), scale 0 to 10, 0 no effect, 10 complete control
[11] = flood test, listed under Postemergence, Rate 250 g/ha, scale 0 to 10, 0 no effect, 10 complete control

## Cc1cc(C)c(-n2c(=O)on(C(=O)N(c3ccc(Cl)cc3)C(C)C)c2=O)c(C)c1 [Compound 61]
blackgrass; [1]
  Blackgrass plant response rating: 0
blackgrass; [2]
  Blackgrass plant response rating: 6
blackgrass; [3]
  Blackgrass plant response rating: 0
blackgrass; [4]
  Plant response rating, Blackgrass: 0
blackgrass; [5]
  Plant response rating, Blackgrass: 5
blackgrass; [6]
  Blackgrass plant response rating: 6
blackgrass; [7]
  Blackgrass plant response rating: 3
blackgrass; [8]
  Blackgrass plant response rating: 7
cocklebur; [1]
  Cocklebur plant response rating: 0
cocklebur; [2]
  Cocklebur plant response rating: 0
cocklebur; [3]
  Cocklebur plant response rating: 0
cocklebur; [4]
  Plant response rating, Cocklebur: 0
cocklebur; [5]
  Plant response rating, Cocklebur: 0
cocklebur; [6]
  Cocklebur plant response rating: 0
cocklebur; [7]
  Cocklebur plant response rating: 0
cocklebur; [8]
  Cocklebur plant response rating: 1
corn; [1]
  Corn plant response rating: 0
corn; [2]
  Corn plant response rating: 0
corn; [3]
  Corn plant response rating: 0
corn; [4]
  Plant response rating, Corn: 0
corn; [5]
  Plant response rating, Corn: 0
corn; [6]
  Corn plant response rating: 0
corn; [7]
  Corn plant response rating: 0
corn; [8]
  Corn plant response rating: 0
crabgrass; [1]
  Crabgrass plant response rating: 0
crabgrass; [2]
  Crabgrass plant response rating: 0
crabgrass; [3]
  Crabgrass plant response rating: 0
crabgrass; [4]
  Plant response rating, Crabgrass: 4
crabgrass; [5]
  Plant response rating, Crabgrass: 7
crabgrass; [6]
  Crabgrass plant response rating: 8
crabgrass; [7]
  Crabgrass plant response rating: 0
crabgrass; [8]
  Crabgrass plant response rating: 0
Giant foxtail; [1]
  Giant foxtail plant response rating: 0
Giant foxtail; [2]
  Giant foxtail plant response rating: 0
Giant foxtail; [3]
  Giant foxtail plant response rating: 3
Giant foxtail; [4]
  Plant response rating, Giant foxtail: 7
Giant foxtail; [5]
  Plant response rating, Giant foxtail: 9
Giant foxtail; [6]
  Giant foxtail plant response rating: 10
Giant foxtail; [7]
  Giant foxtail plant response rating: 0
Giant foxtail; [8]
  Giant foxtail plant response rating: 0
morningglory; [1]
  Morningglory plant response rating: 2
morningglory; [2]
  Morningglory plant response rating: 4
morningglory; [3]
  Morningglory plant response rating: 0
morningglory; [4]
  Plant response rating, Morningglory: 0
morningglory; [5]
  Plant response rating, Morningglory: 0
morningglory; [6]
  Morningglory plant response rating: 0
morningglory; [7]
  Morningglory plant response rating: 2
morningglory; [8]
  Morningglory plant response rating: 8
pigweed; [1]
  Redroot pigweed plant response rating: 1
pigweed; [2]
  Redroot pigweed plant response rating: 3
pigweed; [3]
  Redroot pigweed plant response rating: 0
pigweed; [4]
  Plant response rating, Redroot pigweed: 0
pigweed; [5]
  Plant response rating, Redroot pigweed: 1
pigweed; [6]
  Redroot pigweed plant response rating: 3
pigweed; [7]
  Redroot pigweed plant response rating: 2
pigweed; [8]
  Redroot pigweed plant response rating: 4
rape; [1]
  Rape plant response rating: 0
rape; [2]
  Rape plant response rating: 0
rape; [3]
  Rape plant response rating: 0
rape; [4]
  Plant response rating, Rape: 0
rape; [5]
  Plant response rating, Rape: 0
rape; [6]
  Rape plant response rating: 0
rape; [7]
  Rape plant response rating: 0
rape; [8]
  Rape plant response rating: 3
soybean; [1]
  Soybean plant response rating: 1
soybean; [2]
  Soybean plant response rating: 4
soybean; [3]
  Soybean plant response rating: 0
soybean; [4]
  Plant response rating, Soybean: 0
soybean; [5]
  Plant response rating, Soybean: 0
soybean; [6]
  Soybean plant response rating: 0
soybean; [7]
  Soybean plant response rating: 3
soybean; [8]
  Soybean plant response rating: 5
Sugar beet; [1]
  Sugarbeets plant response rating: 0
Sugar beet; [2]
  Sugarbeets plant response rating: 2
Sugar beet; [3]
  Sugarbeets plant response rating: 0
Sugar beet; [4]
  Plant response rating, Sugarbeets: 0
Sugar beet; [5]
  Plant response rating, Sugarbeets: 5
Sugar beet; [6]
  Sugarbeets plant response rating: 6
Sugar beet; [7]
  Sugarbeets plant response rating: 2
Sugar beet; [8]
  Sugarbeets plant response rating: 6
velvetleaf; [1]
  Velvetleaf plant response rating: 0
velvetleaf; [2]
  Velvetleaf plant response rating: 0
velvetleaf; [3]
  Velvetleaf plant response rating: 0
velvetleaf; [4]
  Plant response rating, Velvetleaf: 0
velvetleaf; [5]
  Plant response rating, Velvetleaf: 0
velvetleaf; [6]
  Velvetleaf plant response rating: 0
velvetleaf; [7]
  Velvetleaf plant response rating: 0
velvetleaf; [8]
  Velvetleaf plant response rating: 0
wheat; [1]
  Wheat plant response rating: 0
wheat; [2]
  Wheat plant response rating: 0
wheat; [3]
  Wheat plant response rating: 0
wheat; [4]
  Plant response rating, Wheat: 0
wheat; [5]
  Plant response rating, Wheat: 0
wheat; [6]
  Wheat plant response rating: 0
wheat; [7]
  Wheat plant response rating: 0
wheat; [8]
  Wheat plant response rating: 0
Purple nutsedge; [1]
  Nutsedge plant response rating: 0
Purple nutsedge; [2]
  Nutsedge plant response rating: 0
Purple nutsedge; [3]
  Nutsedge plant response rating: 0
Purple nutsedge; [4]
  Plant response rating, Nutsedge: 0
Purple nutsedge; [5]
  Plant response rating, Nutsedge: 0
Purple nutsedge; [6]
  Nutsedge plant response rating: 0
Purple nutsedge; [7]
  Nutsedge plant response rating: 0
Purple nutsedge; [8]
  Nutsedge plant response rating: 0
rice; [1]
  Rice plant response rating: 0
rice; [9]
  Rice plant response rating: 0
rice; [10]
  Rice plant response rating: 0
rice; [11]
  Rice plant response rating: 0
Smallflower flatsedge; [1]
  S. Flatsedge plant response rating: 0
Smallflower flatsedge; [9]
  S. Flatsedge plant response rating: 0
Smallflower flatsedge; [10]
  S. Flatsedge plant response rating: 0
Smallflower flatsedge; [11]
  S. Flatsedge plant response rating: 0
Duck salad; [1]
  Ducksalad plant response rating: 0
Duck salad; [9]
  Ducksalad plant response rating: 0
Duck salad; [10]
  Ducksalad plant response rating: 0
Duck salad; [11]
  Ducksalad plant response rating: 0
